Assay results from US20180162844A1, “CYCLOPROPANE DERIVATIVE AND DRUG CONTAINING SAME” (EA PHARMA CO., LTD., priority 2015, published 2018).

The compounds below were run against T1, human TRPA1 (Homo sapiens, UniProt O75762) (assay: Measurement of TRPA1 antagonist activity (intracellular calcium increase, allylisothiocyanate stimulation, 293T cells transfected with human TRPA1 expression plasmid)). Conditions: Examples (Table 8-1); 293T cells expressing human TRPA1, allylisothiocyanate stimulation, FLIPR Calcium4, test substance added 10 min before AITC; read-out: hTRPA1 IC50.
T1 construct: full-length human TRPA1 gene was amplified; expressed in transfected cells; host or cells: Human embryonic kidney-derived 293T cells, transient transfection with pcDNA3.1/zeo(+) human TRPA1 expression plasmid
T1 sequence (O75762 whole entry): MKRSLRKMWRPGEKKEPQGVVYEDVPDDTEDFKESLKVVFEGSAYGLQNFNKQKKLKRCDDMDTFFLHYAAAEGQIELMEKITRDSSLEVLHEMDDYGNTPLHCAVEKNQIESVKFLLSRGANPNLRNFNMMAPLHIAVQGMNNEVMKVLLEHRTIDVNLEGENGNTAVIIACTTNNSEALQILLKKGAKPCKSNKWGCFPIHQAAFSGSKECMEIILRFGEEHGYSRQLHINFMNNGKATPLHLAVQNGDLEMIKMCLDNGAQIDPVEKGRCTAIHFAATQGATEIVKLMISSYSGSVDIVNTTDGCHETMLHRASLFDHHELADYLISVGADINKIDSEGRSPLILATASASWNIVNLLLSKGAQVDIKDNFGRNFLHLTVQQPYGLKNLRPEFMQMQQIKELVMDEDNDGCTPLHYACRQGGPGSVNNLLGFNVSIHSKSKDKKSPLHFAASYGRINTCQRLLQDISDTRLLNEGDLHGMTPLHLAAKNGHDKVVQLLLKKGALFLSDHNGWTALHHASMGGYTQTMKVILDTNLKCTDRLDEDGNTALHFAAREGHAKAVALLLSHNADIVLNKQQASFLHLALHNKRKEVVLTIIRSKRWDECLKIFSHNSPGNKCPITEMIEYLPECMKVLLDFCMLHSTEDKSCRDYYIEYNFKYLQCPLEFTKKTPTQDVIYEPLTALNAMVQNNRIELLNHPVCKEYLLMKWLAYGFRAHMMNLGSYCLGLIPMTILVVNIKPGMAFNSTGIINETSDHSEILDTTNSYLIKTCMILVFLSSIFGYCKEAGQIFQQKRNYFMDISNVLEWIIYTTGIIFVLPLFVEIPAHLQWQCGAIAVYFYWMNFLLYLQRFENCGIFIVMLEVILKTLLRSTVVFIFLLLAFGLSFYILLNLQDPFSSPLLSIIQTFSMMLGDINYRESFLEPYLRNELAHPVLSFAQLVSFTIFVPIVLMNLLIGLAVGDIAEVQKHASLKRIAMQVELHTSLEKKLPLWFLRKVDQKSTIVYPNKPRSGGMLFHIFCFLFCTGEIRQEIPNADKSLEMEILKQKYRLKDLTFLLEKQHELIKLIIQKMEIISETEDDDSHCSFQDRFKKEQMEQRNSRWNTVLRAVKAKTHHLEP
Assay type: cell-based
Protocol: Experimental Example 1: Measurement of TRPA1 antagonist Activity
Human TRPA1 Expression Plasmid
Using cDNA encoding human TRPA1 (GenBank accession No. NM_007332) (manufactured by Kazusa DNA Research Institute, item No.: FHC07217) as a template, primer 1 (SEQ ID NO: 1) and primer 2 (SEQ ID NO: 2), PCR by PfuUltra High-Fidelity DNA Polymerase (Stratagene) was performed, and full-length human TRPA1 gene was amplified.
A recognition site (underlined) of restriction enzyme HindIII was added to the 5′ end of human TRPA1 gene, and XbaI site (underlined) was added to the 3′ end of human TRPA1 gene, and GTT of the template sequence was changed to termination codon TAG (bold). The obtained double stranded DNA was enzyme-digested with HindIII and XbaI, and introduced into a multicloning site of expression plasmid pcDNA3.1/zeo(+) (manufactured by Invitrogen) to give a human TRPA1 expression plasmid.
Human embryonic kidney-derived 293T cells were cultured in Dulbecco's Modified Eagle Medium containing 10% fetal bovine serum, 10 unit penicillin, and 10 μg streptomycin. One day before assay, 3×10^6 of 293T cells were plated on a petri dish having a diameter of 10 cm, and cultured in a CO2 incubator for 24 hr. OPTI-MEM I Reduced Serum Media (Invitrogen). (600 μL), Mirus TransIT-293 (Mirus Bio) (18 μL), and human TRPA1 expression plasmid (6 μg) were mixed, the total amount of the mixture was added to the cells on the petri dish to allow for gene transfer. The cells were recovered about for 8 hr later, plated on a poly-D-lysine coated 384 well black/clear bottom plate at 12,000 cells/well, and cultured overnight.
Measurement of Intracellular Calcium Increase
The medium was removed from the 384 well plate, calcium indicator (Molecular Device, trade name: FLIPR Calcium4 Assay Kit) dissolved in HBSS (Thermo Fisher Scientific) (pH 7.2) containing 20 mM HEPES was added (38 μL/well), and the cells were stained in a CO2 incubator for 1 hr. The 384 well plate was stood at room temperature for not less than 15 min, set on FDSS7000 (Hamamatsu Photonics K.K.), and a test substance solution was added at 10 μL/well. After 10 min, allylisothiocyanate solution (12 μL/well) was added, the relative fluorescence intensity was measured for 5 min after addition of the allylisothiocyanate solution.
Preparation of Test Substance Solution and Allylisothiocyanate Solution
A test substance solution was prepared to have a composition of HBSS (Thermo Fisher Scientific) (pH 7.2) containing 0.48% dimethyl sulfoxide, a test substance at 4.8-fold concentration of the evaluation concentration, 0.1% bovine serum albumin and 20 mM HEPES. An allylisothiocyanate solution was prepared to have a composition of HBSS (Thermo Fisher Scientific) (pH 7.2) containing 0.1% dimethyl sulfoxide, 100 μM allylisothiocyanate, 0.1% bovine serum albumin and 20 mM HEPES.
Calculation of Antagonist Activity
The activity rate of a test substance at each concentration was calculated, wherein the relative fluorescence intensity change of a well free of a test substance and containing allylisothiocyanate is 100% activity rate, and the relative fluorescence intensity change of a well free of a test substance and allylisothiocyanate is 0% activity rate. The inhibitory rate of a test substance at each concentration was calculated by subtracting the activity rate of the test substance from 100% activity rate, and the concentration of a test substance showing 50% inhibitory rate was calculated as IC50 from the sigmoid approximate curve by XLFit (idbs).

IC50 | Compound
25 nM | O=C(NCc1ccc(O)c(-c2ccc(C(F)(F)F)cn2)c1)C1(NS(=O)(=O)c2cc3cc(F)ccc3o2)CC1 [Example 18, 1-[(5-fluorobenzofuran-2-yl)sulfonylamino]-N-[[4-hydroxy-3-[5-(trifluoromethyl)-2-pyridyl]phenyl]methyl]-cyclopropanecarboxamide]
38 nM | CN(C)c1nc(CNC(=O)C2(NS(=O)(=O)c3cc4cc(F)ccc4o3)CC2)cc(-c2ccc(C(F)(F)F)cc2)n1 [Example 19]
23 nM | O=C(NCc1cc(-c2ccc(C(F)(F)F)cc2O)ncn1)C1(NS(=O)(=O)c2cc3cc(F)ccc3o2)CC1 [Example 20, 1-[(5-fluorobenzofuran-2-yl)sulfonylamino]-N-[[6-[2-hydroxy-4-(trifluoromethyl)-phenyl]pyrimidin-4-yl]methyl]cyclopropanecarboxamide]
77 nM | O=C(NCc1cc(-c2ccc(C(F)(F)F)cc2)ncn1)C1(NS(=O)(=O)c2cc3ccccc3o2)CC1 [Example 21, 1-(benzofuran-2-ylsulfonylamino)-N-[[6-[4-(trifluoromethyl)phenyl]pyrimidin-4-yl]methyl]cyclopropanecarboxamide]
130 nM | O=C(NCc1cc(-c2ccc(C(F)(F)F)cn2)ccn1)C1(NS(=O)(=O)c2cc3ccccc3o2)CC1 [Example 22, 1-(benzofuran-2-ylsulfonylamino)-N-[[4-[5-(trifluoromethyl)-2-pyridyl]-2-pyridyl]methyl]-cyclopropanecarboxamide]
100 nM | CN(C)c1nc(CNC(=O)C2(NS(=O)(=O)c3cc4ccccc4o3)CC2)cc(-c2ccc(C(F)(F)F)cc2)n1 [Example 23, 1-(benzofuran-2-ylsulfonylamino)-N-[[2-(dimethylamino)-6-[4-(trifluoromethyl)phenyl]pyrimidin-4-yl]methyl]cyclopropanecarboxamide]
3.3 nM | CC(C)N(C1(C(=O)NCc2cc(-c3ccc(C(F)(F)F)nc3)ncn2)CC1)S(=O)(=O)c1cc2cc(F)ccc2o1 [Example 24, 1-[(5-fluorobenzofuran-2-yl)sulfonyl-isopropyl-amino]-N-[[6-[6-(trifluoromethyl)-3-pyridyl]pyrimidin-4-yl]methyl]cyclopropanecarboxamide]
8.1 nM | CC(C)N(C1(C(=O)NCc2cc(-c3ccc(C(F)(F)F)nc3)ncn2)CC1)S(=O)(=O)c1cc2ccccc2o1 [Example 25, 1-[benzofuran-2-ylsulfonyl(isopropyl)amino]-N-[[6-[6-(trifluoromethyl)-3-pyridyl]pyrimidin-4-yl]methyl]cyclopropanecarboxamide]
45 nM | O=C(NCc1cc(-c2ccc(C(F)(F)F)cc2)ncn1)C1(NS(=O)(=O)c2cc3cnccc3o2)CC1 [Example 26, 1-(furo[3,2-c]pyridin-2-ylsulfonylamino)-N-[[6-[4-(trifluoromethyl)phenyl]pyrimidin-4-yl]methyl]cyclopropanecarboxamide]
86 nM | O=C(NCc1cc(-c2ccc(C(F)(F)F)cc2)nc(N2CCCC2)c1)C1(NS(=O)(=O)c2cc3cc(F)ccc3o2)CC1 [Example 27, 1-[(5-fluorobenzofuran-2-yl)sulfonylamino]-N-[[2-pyrrolidin-1-yl-6-[4-(trifluoromethyl)phenyl]-4-pyridyl]methyl]-cyclopropanecarboxamide]
260 nM | O=C(NCc1cc(-c2ccc(C(F)(F)F)cc2)nc(N2CCCC2)c1)C1(NS(=O)(=O)c2cc3ccccc3o2)CC1 [Example 28, 1-(benzofuran-2-ylsulfonylamino)-N-[[2-pyrrolidin-1-yl-6-[4-(trifluoromethyl)phenyl]-4-pyridyl]methyl]-cyclopropanecarboxamide]
1.2 nM | CN(C1(C(=O)NCc2cc(-c3ccc(C(F)(F)F)cn3)ccn2)CC1)S(=O)(=O)c1cc2cc(F)ccc2o1 [Example 29, 1-[(5-fluorobenzofuran-2-yl)sulfonyl-methyl-amino]-N-[[4-[5-(trifluoromethyl)-2-pyridyl]-2-pyridyl]methyl]-cyclopropanecarboxamide]
